This is an account of results in PMC11678797, “A Repurposed Drug Selection Pipeline to Identify CNS-Penetrant Drug Candidates for Glioblastoma” (Pharmaceuticals, 2024).

The conditions of data set [1]: source not stated; cited from earlier work.
The next data set addresses T1, human BCRP (ABCG2) (Homo sapiens, UniProt Q9UNQ0).
T1 construct: expressed in transfected cells; host or cells: MDCK type II (canine kidney) cells transduced with human ABCG2 (MDCK-BCRP)
T1 sequence (Q9UNQ0 1-655): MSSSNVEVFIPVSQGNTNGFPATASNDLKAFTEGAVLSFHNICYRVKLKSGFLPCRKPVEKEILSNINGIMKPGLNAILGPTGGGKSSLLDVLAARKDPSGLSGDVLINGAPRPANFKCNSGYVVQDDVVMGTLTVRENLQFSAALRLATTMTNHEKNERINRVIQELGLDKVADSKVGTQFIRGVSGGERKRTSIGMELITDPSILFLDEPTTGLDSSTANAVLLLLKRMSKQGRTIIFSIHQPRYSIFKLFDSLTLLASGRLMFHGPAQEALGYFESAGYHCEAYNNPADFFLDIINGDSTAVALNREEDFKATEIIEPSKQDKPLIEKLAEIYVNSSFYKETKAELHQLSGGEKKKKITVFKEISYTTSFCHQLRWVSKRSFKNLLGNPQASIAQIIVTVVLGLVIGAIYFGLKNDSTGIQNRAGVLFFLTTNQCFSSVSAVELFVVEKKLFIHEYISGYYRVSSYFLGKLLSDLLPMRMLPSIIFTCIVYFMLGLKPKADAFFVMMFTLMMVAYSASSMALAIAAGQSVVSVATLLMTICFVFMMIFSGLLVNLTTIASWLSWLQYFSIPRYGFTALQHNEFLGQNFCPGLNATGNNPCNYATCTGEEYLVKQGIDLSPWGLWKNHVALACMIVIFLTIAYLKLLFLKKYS
Kind of data set: Concentration equilibrium transport assay (CETA), MDCK cells transduced with human ABCG2, with zosuquidar. Format: in vitro ADME. The following applies: omacetaxine 100 nM, zosuquidar 1 μM, up to 4 h. As for the experimental part:
In vitro transport studies were performed using the LLC pig kidney cell line (LLC-PK1) and sub-lines transduced with murine Abcb1a (LLC-Mdr1a) or human ABCB1 (LLC-MDR1). Similarly, in vitro transport studies were conducted in the parental Madin–Darby canine kidney (MDCK) type II cell line (MDCK-Parent) and murine Abcg2 (MDCK-Bcrp1) or human ABCG2 (MDCK-BCRP) transduced sublines. Concentration equilibrium transport assays (CETA) were performed as previously described. Briefly, cells were grown on polycarbonate membrane filters (3.0 µm pores, 24 mm diameter; Costar Corning, NY, USA) for 4 days. Next, 2 mL of MEM medium containing 10% FCS and omacetaxine (100 nM) was added to both the apical and basal compartments. Then, [14C]-inulin ([…]) was added basolateral to check the membrane integrity. Zosuquidar 1 μM was added to all wells containing MDCK cells to inhibit endogenous (canine) ABCB1. […] The integrity of the membrane was checked by taking 20 μL samples from both apical and basolateral sides for radioactivity counting. […] OMA concentrations were measured using an LC-MS/MS system that consisted of an UltiMate 3000 LC System (Dionex, Sunnyvale, CA, USA) and an API 4000 mass spectrometer (Sciex, Framingham, MA, USA).

SMILES strings stand for the structures.

On to `COC(=O)C[C@](O)(CCCC(C)(C)O)C(=O)O[C@@H]1C(OC)=C[C@]23CCCN2CCc2cc4c(cc2[C@H]13)OCO4` [OMA, Omacetaxine mepesuccinate], for which the logP value in data set [1] is reported as 1.88. Also, the “substrate of BCRP (translocation between apical and basolateral compartments)” value at human BCRP (ABCG2) is given as “not a substrate”.
